The numbers were not newly measured in PMC11333285, “Inhibition of lysine acetyltransferase KAT6 in ER^+HER2^− metastatic breast cancer: a phase 1 trial” (Nature Medicine, 2024), which cites them from elsewhere.

For data set [1], the system named is HR+/HER2− mBC. Further details: method as in PMID 34357781. The following applies: HR+/HER2− mBC progressed after aromatase inhibitors.
Data set [2] relates to HR+/HER2− mBC. More on the design: method as in PMID 35583555, PMID 35584336. The following applies: all comers after first-line CDK4/6 inhibitors and ET.
The test system of a further data set is mBC with ESR1 mutations. More on the design: method as in PMID 35584336. The following applies: patients with ESR1 mutations.

Like-named read-outs stand apart in the source and are kept apart here.

As for `Nc1ccccc1NC(=O)c1ccc(CNC(=O)OCc2cccnc2)cc1` [entionostat plus ET], in the data set with HR+/HER2− mBC [1], the mPFS is 3.3 months.

For `C[C@]12CC[C@@H]3c4ccc(O)cc4C[C@@H](CCCCCCCCC[S+]([O-])CCCC(F)(F)C(F)(F)F)[C@H]3[C@@H]1CC[C@@H]2O` (stereo partly shown) [fulvestrant], in the data set with HR+/HER2− mBC [2], the CBR is recorded as 13.7% and the mPFS was 2 months.

As for `CCNCCc1ccc(CN(CC)c2cc(OC)ccc2[C@@H]2CCc3cc(O)ccc3C2)cc1` [elacestrant], the mPFS with mBC with ESR1 mutations is recorded as 3.8 months.
